Consider eight compounds from patent publication US9018213B2, “Alicyclic[c] benzopyrone derivatives and uses thereof” (Huazhong University of Science & Technology, priority 2011, dated 2015).

What is called IC50 is the point on the concentration scale where inhibition reaches its midpoint. Low values mean higher potency, high ones lower potency. What is called ED50 is the dose that gives a 50% effect, or the effect in half of the subjects. The term LD50 denotes the dose at which mortality reaches 50%.

Like-named read-outs stand apart in the source and are kept apart here.

The target in data set [1] is 5HT1A receptor (Rattus norvegicus (Rat), UniProt P19327). In words: 5HT1A receptor binding assay (3H-8-OH-DPAT). The procedure: Preparation of 5HT1A Membrane
Incubation at 37° C. was conducted for 10 min, the weight of the tubes were adjusted using a balance after incubation. […] Centrifugation was conducted and repeated 3 times.
Materials for the Receptor Binding Assay

Data set [2] concerns the target 5HT2A receptor (Rattus norvegicus (Rat), UniProt P14842). The experiment in a line: 5HT2A receptor binding assay ([3H]-Ketanserin).
For data set [3], the target named is D3 receptor (Homo sapiens (Human), UniProt P35462). The experiment in a line: D3 receptor competitive binding assay ([3H]-Spiperone, HEK-293 cells). As to the method:
After the cells were centrifuged at 1000 rpm for 5 min, the supernatant was discarded, and the cell pellet was collected and stored in a -20° C. fridge for reservation. It was re-suspended with Tris-Cl (pH 7.4) in the assay. […] Tris was divided into aliquots by […] Technology Inc. Procedures Competitive binding test for receptors: 20 μl of each of the test compounds and 20 μl of the radioactive ligand together with 160 μl of the receptor proteins were added into the reaction tubes, and the final concentrations of the test compound and the positive drug were all 10 μmol/L. After 50 min of incubation in 30° C. water bath, the tubes were immediately moved to ice bath to terminate the reactions. GF/C glass fiber filter papers were used for rapid sucking filtration on a Millipore cell sample collector, elution buffer (50 mM Tris-HCl, PH 7.4) was applied for 3 ml×3 times, and microwave was applied for 4-5 min for drying. The filter papers were moved into 0.5 ml centrifuge tubes, and 500 μl of lipid-soluble scintillation solution was added. The tubes were allowed to stand still for over 30 min in dark, and the intensities of radioactivity were measured by a counter.

The target of data set [4] is 5HT2C receptor (Rattus norvegicus (Rat), UniProt P08909). In words: 5HT2C receptor binding assay ([3H]-mesulergine).
Data set [5] relates to mice of Kunming breed. The experiment in a line: MK-801 induced high activity. It is filed as in vivo. Conditions: po, mice; for ED50: Mus musculus. As to the method: Healthy mice of Kunming breed (with half male and half female, (20±2) g) were provided by Qinglongshan Animal Cultivation Center, Nanjing.
Ascorbic acid was provided by Sinopharm Chemical Reagent Co. Ltd.
Tween 80, with the concentration of 10%.
Subsequently, the spontaneous activities of the mice of each group in 90 min were measured.

The test system of data set [6] is KM mice. In words: Apomorphine induced clambering assay of mice. Format: in vivo. Conditions: for ED50: Mus musculus, read-out: apomorphine induced clambering ED50; for ED50 / apomorphine induced clambering ED50: po, mice; for Scoring (value), apomorphine induced clambering: x ± s, n = 10. The procedure: Apomorphine Induced Clambering Assay of Mice
Healthy KM mice (male, with body weight of 18-22 g) were provided by Qinglongshan Animal Cultivation Center, Nanjing.
Apomorphine provided by Sigma Company was dissolved in 0.9% NaCl (containing 0.1% vitamin C) before use, and was freshly formulated before use.
Vitamin C, F20061113, was provided by Sinopharm Chemical Reagent Co. Ltd.
Sodium chloride injection, H32026305, was provided by Xuzhou No. 5 Pharmaceutical Factory Co. Ltd.
Instruments: self-made clambering cage, chronograph.
Procedures: apomorphine induced clambering assay of mice
After 5 min of adaptation, the behaviors of the mice at 10-11, 20-21, and 30-31 min after the injection of apomorphine were observed and scored. Scoring criteria: 4 paws on the floor was scored as 0; 2 forepaws on the cage was scored as 1; and 4 paws on the cage was scored as 2.

A short description of data set [7]: Catalepsy assay. Conditions: both, Kunming (KM), mouse, po. The procedure:
Healthy mice of Kunming breed (with half male and half female, (22±2) g) were provided by Qinglongshan Animal Cultivation Center, Nanjing.
The durations for the mice to maintain the posture with the two forepaws on the bars were recorded, and 30 s of spasticity without moving was considered as the positive response. In the case the forepaws of the mice were not put down persistently, the observation was terminated at 60 s. The numbers of animals with positive response in each of the compound dosage groups were counted.

The nature of data set [8]: in vivo. Conditions: both sexes, mouse, in vivo, po. As to the method:
(§1) Limit Test of Sequential Assay
(§2) KM mice (half male and half female) were randomly divided into several groups (with 2-5 mice in each group), which were respectively the 2000 mg/kg groups for each compound, and the solvent group. 0.2 ml/10 g were administered intragastrically. The death of the animals in 3 days were observed. (In the case 3 or more animals survived in 3 days without notable abnormity in their life states, the observation was continued until the assay was completed in 7 days. In the case 3 or more animals died in 3 days, the median lethal dose method was used to determine the LD50).
(§3) Pre-Assay for the Median Lethal Dose Method
(§4) 0.2 ml/10 g were administered intragastrically, and the death of the animals in 1-3 days were observed.

For data set [9], the target named is D2 receptor (Rattus norvegicus (Rat), UniProt P61169). In words: D2 receptor inhibition binding assay (3H-Spiperone).
Protocol: Rats were sacrificed by cervical dislocation on ice. Cerebral cortex was rapidly taken, and 2 cerebral cortexes were combined into a centrifuge tube, to which 3 ml of buffer (0.05 M Tris-HCl buffer, containing NaCl 120 mM, KCl 5 mM, MgCl2 1 mM, CaCl2 1 mM) was added, homogenization was conducted for 3-4 s at level 4 for four times, and then 5 ml of buffer was then added. The weight of the homogenized tubes were adjusted using a balance, and centrifugation was conducted at 12000 r, 4° C. for 20 min. The supernatant was discarded, and 3 ml of B solution was added. Vortex mixer was used for blending, and then 5 ml of B solution was added. Centrifugation was conducted and repeated 3 times. After the centrifugations, the supernatant was discarded, and the pellets were stored at −80° C. for future use.
Beckman LS-6500 Multi-function Liquid Scintillation Counter was used.
(1) The prepared membrane was first applied with appropriate amount of homogenized liquid, and homogenizer was used for evenly dispersing. 15 tubes were mixed into a 100 ml container, and appropriate amount of homogenized liquid was added to give 50 ml of membrane suspension, which was reserved for future use.
(2) 100 μL of membrane preparation and 100 μL of buffer were added into each reaction tube.
(3) 100 μL of homogenized liquid was added into the total binding tube (TB), 100 μL of Butaclamol (final concentration 10^−5 M) was added into the non-specific binding tube (NB), and 100 μL of the test compound (final concentration 10^−5 M) was added into the specific binding tube (SB) for each compound.
(5) Each of the reaction tubes was incubated at 37° C. for 20 min. After the reaction was completed, the bound ligands were rapidly filtered under reduced pressure, and the ice-chilled assay buffer was used for adequate washing. The filter was taken out and put into a 3 ml scintillation vial, and 2 ml of toluene scintillation solution was added and blended.
(6) The scintillation vials were put into Liquid Scintillation Counter for counting. Inhibitory rate (I %)=(Total binding tube cpm−compound cpm)/(Total binding tube cpm−non-specific binding tube cpm)×100%
Each assay for the compounds was conducted in duplicate.
Data set [10] has as its system KM mice. In words: in vivo. Conditions: po, mice, single intragastric administration. As to the method: as §1, §2, §3, §4
The mark [11] stands for this setting: mice, single intragastric administration, read-out: LD50.

Sequence of D2 receptor (P61169 whole entry): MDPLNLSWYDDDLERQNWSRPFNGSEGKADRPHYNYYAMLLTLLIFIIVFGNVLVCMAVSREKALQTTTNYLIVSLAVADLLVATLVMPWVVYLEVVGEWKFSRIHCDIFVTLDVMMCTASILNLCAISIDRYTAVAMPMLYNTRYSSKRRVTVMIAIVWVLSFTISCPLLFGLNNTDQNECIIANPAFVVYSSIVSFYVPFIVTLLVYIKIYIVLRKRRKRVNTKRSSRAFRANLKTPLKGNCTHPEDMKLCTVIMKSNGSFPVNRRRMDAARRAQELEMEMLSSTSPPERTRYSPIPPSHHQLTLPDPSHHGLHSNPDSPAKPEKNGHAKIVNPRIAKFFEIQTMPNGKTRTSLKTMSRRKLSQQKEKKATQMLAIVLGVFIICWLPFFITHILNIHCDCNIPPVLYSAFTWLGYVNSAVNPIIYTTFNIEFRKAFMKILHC
Sequence of 5HT2A receptor (P14842 whole entry): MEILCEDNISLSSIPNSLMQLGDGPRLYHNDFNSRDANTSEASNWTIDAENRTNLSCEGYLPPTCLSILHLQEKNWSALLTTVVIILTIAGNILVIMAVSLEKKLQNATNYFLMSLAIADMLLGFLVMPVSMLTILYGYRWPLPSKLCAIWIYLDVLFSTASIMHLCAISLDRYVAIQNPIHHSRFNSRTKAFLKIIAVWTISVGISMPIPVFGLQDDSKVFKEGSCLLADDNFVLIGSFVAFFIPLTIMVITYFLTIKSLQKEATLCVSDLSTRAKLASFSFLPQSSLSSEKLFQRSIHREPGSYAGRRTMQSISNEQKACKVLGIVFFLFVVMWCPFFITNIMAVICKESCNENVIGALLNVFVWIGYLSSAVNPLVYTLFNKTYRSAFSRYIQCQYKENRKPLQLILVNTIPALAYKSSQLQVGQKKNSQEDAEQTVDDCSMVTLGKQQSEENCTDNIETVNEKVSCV
Sequence of D3 receptor (P35462 whole entry): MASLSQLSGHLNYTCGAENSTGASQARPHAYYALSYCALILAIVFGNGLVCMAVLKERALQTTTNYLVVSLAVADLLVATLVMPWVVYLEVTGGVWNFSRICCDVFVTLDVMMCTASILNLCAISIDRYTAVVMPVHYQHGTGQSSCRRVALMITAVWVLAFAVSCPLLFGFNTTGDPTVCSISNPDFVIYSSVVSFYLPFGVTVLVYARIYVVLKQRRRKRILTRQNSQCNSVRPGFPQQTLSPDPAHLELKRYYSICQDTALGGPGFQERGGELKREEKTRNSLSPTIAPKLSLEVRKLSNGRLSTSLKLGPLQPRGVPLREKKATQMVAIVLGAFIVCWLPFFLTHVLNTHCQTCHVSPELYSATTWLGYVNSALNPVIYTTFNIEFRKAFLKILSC
Sequence of 5HT1A receptor (P19327 whole entry): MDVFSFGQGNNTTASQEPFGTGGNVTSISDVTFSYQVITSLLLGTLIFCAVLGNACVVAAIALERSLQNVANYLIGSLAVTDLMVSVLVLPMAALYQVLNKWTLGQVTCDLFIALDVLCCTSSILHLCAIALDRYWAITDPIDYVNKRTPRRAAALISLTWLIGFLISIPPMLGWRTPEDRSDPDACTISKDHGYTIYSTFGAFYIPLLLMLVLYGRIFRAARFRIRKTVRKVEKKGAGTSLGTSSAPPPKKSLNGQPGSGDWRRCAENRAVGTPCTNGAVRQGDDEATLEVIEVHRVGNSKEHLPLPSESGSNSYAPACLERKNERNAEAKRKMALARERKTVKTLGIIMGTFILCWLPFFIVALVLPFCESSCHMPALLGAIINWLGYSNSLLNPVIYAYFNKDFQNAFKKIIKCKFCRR
Sequence of 5HT2C receptor (P08909 33-460): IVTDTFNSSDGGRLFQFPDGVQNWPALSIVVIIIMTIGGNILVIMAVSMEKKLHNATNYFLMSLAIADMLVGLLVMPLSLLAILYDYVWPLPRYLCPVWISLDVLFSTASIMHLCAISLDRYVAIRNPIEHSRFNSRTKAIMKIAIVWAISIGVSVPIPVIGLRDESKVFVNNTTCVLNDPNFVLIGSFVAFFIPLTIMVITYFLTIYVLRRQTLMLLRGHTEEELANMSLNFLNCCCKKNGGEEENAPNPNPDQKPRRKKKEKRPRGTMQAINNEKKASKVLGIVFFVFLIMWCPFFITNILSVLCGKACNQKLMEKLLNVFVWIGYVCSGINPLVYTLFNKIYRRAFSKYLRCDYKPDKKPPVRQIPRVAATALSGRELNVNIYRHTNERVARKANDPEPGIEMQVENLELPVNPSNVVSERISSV

For the compound `O=c1oc2cc(OCCCN3CCC(c4noc5cc(F)ccc45)CC3)ccc2c2c1CCC2` [Compound 5, 7-{3-[4-(3-(6-fluoro-benzisoxazole)-1-piperidyl)-n-propoxy]}-2,3-dihydro-1H-cyclopenteno[c]benzopyran-4-one], the IC50 amounted to 0.03 nM in data set [1]; 0.56 nM in [2]; 8.9 nM in [3]; 1160 nM in data set [4]; 5.6 nM in data set [9]. Moreover, the ED50 came out at 0.35 mg/kg in [5], 0.68 mg/kg in [6] and 168 mg/kg in data set [7] (in vivo). Further, the “Scoring (value), apomorphine induced clambering” value (“Scoring (value)” below) in data set [6] (dosage 0.1 mg/kg) is listed as 4.60 ± 2.07; in data set [6] (dosage 0.3 mg/kg), 3.00 ± 1.94; in data set [6] (dosage 1 mg/kg), 0.90 ± 1.20; in data set [6] (dosage 3 mg/kg), 0.20 ± 0.63. The LD50 in data set [8] (setting [11]) was above 2000 mg/kg.
Turning to `O=c1oc2c(Cl)c(OCCCCN3CCN(c4nsc5ccccc45)CC3)ccc2c2c1CCC2` [Compound 14, 7-{4-[4-(3-(1,2-benzisothiazole)-1-piperazinyl)-n-butoxy]}-6-chloro-2,3-dihydro-1H-cyclopenteno[c]benzopyran-4-one], the IC50 in [1] came to 0.86 nM; in data set [2] it was 0.82 nM; in data set [3], 15.1 nM; in [4], 1490 nM; in data set [9], 10.1 nM. Further, the ED50 in [5] worked out at 0.82 mg/kg; in data set [6], 0.25 mg/kg; in data set [7] (in vivo) it was 189 mg/kg. In addition, the “Scoring (value)” value in data set [6] (dosage 0.1 mg/kg) is listed as 5.30 ± 1.25; in [6] (dosage 0.3 mg/kg), 2.10 ± 1.85; in data set [6] (dosage 1 mg/kg) it was 1.25 ± 1.75; in data set [6] (dosage 3 mg/kg) it was 0.25 ± 0.71; in [6] (dosage 10 mg/kg), 0.80 ± 1.40. Besides, the LD50 in data set [8] (setting [11]) is above 2000 mg/kg.
For the compound `O=c1oc2c(Cl)c(OCCCCN3CCC(c4noc5cc(F)ccc45)CC3)ccc2c2c1CCC2` [Compound 15, 7-{4-[4-(3-(6-fluoro-benzisoxazole)-1-piperidyl)-butoxy]}-6-chloro-2,3-dihydro-1H-cyclopenteno[c]benzopyran-4-one], the concentration for half-maximal inhibition (IC50) was 0.73 nM in data set [1]; 0.29 nM in data set [2]; 8.6 nM in data set [3]; 1890 nM in data set [4]; 8.1 nM in data set [9]. The ED50 in [5] amounted to 1.25 mg/kg; in data set [6], 0.56 mg/kg; in data set [7] (in vivo), 98.9 mg/kg. In addition, the “Scoring (value)” value in data set [6] (dosage 0.1 mg/kg) was determined as 4.75 ± 1.58; in [6] (dosage 0.3 mg/kg), 3.38 ± 0.92; in data set [6] (dosage 1 mg/kg), 3.00 ± 1.60; in data set [6] (dosage 3 mg/kg), 0.50 ± 0.76. Also, the LD50 in data set [8] (setting [11]) was above 2000 mg/kg.
Turning to `COc1ccccc1N1CCN(CCCCOc2ccc3c4c(c(=O)oc3c2)CCCC4)CC1` [Compound 19, 3-{4-[4-(2-methoxyphenyl)piperazin-1-yl]-butoxy}-7,8,9,10-tetrahydrobenzo[c]benzopyran-6-one], the concentration for half-maximal inhibition (IC50) in data set [1] was 4.2 nM; in data set [2] it was 1.8 nM; in data set [3], 13.2 nM; in data set [4], 1120 nM; in data set [9], 3.6 nM. In addition, the ED50 was determined as 2.35 mg/kg in data set [5], 0.15 mg/kg in data set [6] and 156 mg/kg in data set [7] (in vivo). Besides, the “Scoring (value)” value in [6] (dosage 0.3 mg/kg) came to 4.90 ± 1.10; in data set [6] (dosage 0.52 mg/kg), 0.75 ± 1.04; in data set [6] (dosage 1 mg/kg) it was 1.50 ± 1.20; in [6] (dosage 3 mg/kg), 0.40 ± 0.97. Further, the LD50 in data set [8] (setting [11]) is above 2000 mg/kg.
For `CN1CCN(C2=Nc3cc(Cl)ccc3Nc3ccccc32)CC1` [clozapine], the “MK-801 induced high activity ED50” value in [5] stood at 2.28 mg/kg. The “Scoring (value)” value is given as 5.50 ± 0.76 in data set [6] (dosage 10 mg/kg), 4.60 ± 2.07 in data set [6] (dosage 17.4 mg/kg), 3.70 ± 2.21 in data set [6] (dosage 23 mg/kg) and 0.60 ± 1.07 in data set [6] (dosage 30 mg/kg). In addition, the “apomorphine induced clambering ED50” value in data set [6] stood at 17.92 mg/kg. For the same compound, the ED50 in data set [7] is above 50 mg/kg. Further, the LD50 in data set [8] (setting [11]) and in data set [10] was 150 mg/kg each time.
As to `O=C(CCCN1CCC(O)(c2ccc(Cl)cc2)CC1)c1ccc(F)cc1` [haloperidol], the “MK-801 induced high activity ED50” value in [5] worked out at 7.42 mg/kg. The 50% effective dose (ED50) was 0.1 mg/kg in data set [6] and 0.44 mg/kg in data set [7]. Besides, the “Scoring (value)” value in [6] (dosage 0.1 mg/kg) is on record as 4.50 ± 1.78; in data set [6] (dosage 0.13 mg/kg), 1.50 ± 1.27; in data set [6] (dosage 0.174 mg/kg), 2.20 ± 1.69; in data set [6] (dosage 0.23 mg/kg), 0.80 ± 0.79; in data set [6] (dosage 0.3 mg/kg), 0.70 ± 0.82; in data set [6] (dosage 1 mg/kg), 0.60 ± 1.58. For the same compound, the LD50 in data set [8] (setting [11]) and in data set [10] was 20 mg/kg throughout.
For the compound `OCCOCCN1CCN(C2=Nc3ccccc3Sc3ccccc32)CC1` [quetiapine], in [5], the “MK-801 induced high activity ED50” value is recorded as 10.1 mg/kg. Further, the “Scoring (value)” value in data set [6] (dosage 3 mg/kg) worked out at 4.00 ± 2.05; in data set [6] (dosage 10 mg/kg), 3.00 ± 1.63; in data set [6] (dosage 30 mg/kg), 4.00 ± 2.31; in data set [6] (dosage 100 mg/kg), 2.60 ± 2.55; in data set [6] (dosage 300 mg/kg), 0.50 ± 1.07. Also, the “apomorphine induced clambering ED50” value in [6] came to 2.02 mg/kg. The compound further showed an ED50 in [7] of 800 mg/kg. The LD50 in data set [8] (KM) came out at 800 mg/kg.
Regarding `O=C1Cc2cc(CCN3CCN(c4nsc5ccccc45)CC3)c(Cl)cc2N1` [ziprasidone], the figures for the ED50 in data set [5], in data set [6] and in [7] were 0.56 mg/kg, 0.37 mg/kg and 30.4 mg/kg, respectively. In addition, the “Scoring (value)” value in [6] (dosage 0.3 mg/kg) was 4.40 ± 2.01; in data set [6] (dosage 1 mg/kg), 3.80 ± 1.40; in data set [6] (dosage 3 mg/kg) it was 0.70 ± 1.16; in data set [6] (dosage 10 mg/kg), 0.40 ± 0.84. Moreover, the LD50 in data set [8] (setting [11]) is above 2000 mg/kg.
